Results as given in patent publication US6262305A, “Process and intermediates for preparing 3-(substituted phenyl)-5-(thienyl or furyl)-1,2,4-triazole compounds” (priority 1999, dated 2001).

System: Cotton Aphid
Assay: Seed Treatment Test vs. Cotton Aphid on Squash
Assay type: in vivo, Aphis gossypii
Description: Seed Treatment Test vs. Cotton Aphid on Squash
Four-inch pots were filled two-thirds full with sieved soil mix (70 sand/30 pulverized soil). Compound was applied as a suspension to the center in 4 ml volume. Squash seed placed in the applied chemical zone was covered with soil mix 1 cm deep. […] The plants were then infested with aphids. Four days later, aphid counts were made.

SMILES | % Ctrl., cotton aphid on Squash - 1st True Leaf (0.8 mg/pot) [%] | Cotton aphid counts on Squash - 1st True Leaf, Mean (0.8 mg/pot) | % Ctrl., cotton aphid on Squash - cotyledon (0.8 mg/pot) [%] | Cotton aphid counts on Squash - cotyledon, Mean (0.8 mg/pot) | % Ctrl., cotton aphid on Squash - 1st True Leaf (3.2 mg/pot) [%] | Cotton aphid counts on Squash - 1st True Leaf, Mean (3.2 mg/pot) | % Ctrl., cotton aphid on Squash - cotyledon (3.2 mg/pot) [%] | Cotton aphid counts on Squash - cotyledon, Mean (3.2 mg/pot) | % Ctrl., cotton aphid on Squash - 1st True Leaf (12.8 mg/pot) [%] | Cotton aphid counts on Squash - 1st True Leaf, Mean (12.8 mg/pot) | % Ctrl., cotton aphid on Squash - cotyledon (12.8 mg/pot) [%] | Cotton aphid counts on Squash - cotyledon, Mean (12.8 mg/pot) | % Ctrl., cotton aphid on Squash - 1st True Leaf (0.05 mg/pot) [%] | Cotton aphid counts on Squash - 1st True Leaf, Mean (0.05 mg/pot) | % Ctrl., cotton aphid on Squash - cotyledon (0.05 mg/pot) [%] | Cotton aphid counts on Squash - cotyledon, Mean (0.05 mg/pot) | % Ctrl., cotton aphid on Squash - 1st True Leaf (0.2 mg/pot) [%] | Cotton aphid counts on Squash - 1st True Leaf, Mean (0.2 mg/pot) | % Ctrl., cotton aphid on Squash - cotyledon (0.2 mg/pot) [%] | Cotton aphid counts on Squash - cotyledon, Mean (0.2 mg/pot)
Cn1nc(-c2c(F)cccc2Cl)nc1-c1sc(Cl)c(Cl)c1Cl [Compound 2, 3-(2-chloro-6-fluorophenyl)-5-(3,4,5-trichlorothien-2-yl)-1-methyl[1,2,4]triazole] | 85.8 | 12.0 | 54.4 | 48.0 | 95.9 | 3.5 | 93.1 | 7.3 | 96.1 | 3.3 | 93.3 | 7.0 |  |  |  |  |  |  |  | 
Cn1nc(-c2c(Cl)cccc2Cl)nc1-c1sc(Cl)c(Cl)c1Cl [Compound 45, 3-(2,6-dichlorophenyl)-5-(3,4,5-trichlorothien-2-yl)-1-methyl[1,2,4]triazole] | 51.7 | 40.8 | 0 | 165.5 | 77.8 | 18.8 | 52.3 | 50.3 | 90.2 | 8.3 | 24.0 | 80.0 |  |  |  |  |  |  |  | 
O=[N+]([O-])NC1=NCCN1Cc1ccc(Cl)nc1 [Imidacloprid, reference compound] | 100.0 | 0.0 | 100 | 0 |  |  |  |  |  |  |  |  | 58.5 | 35.0 | 97.6 | 2.5 | 88.4 | 9.8 | 100 | 0
